Assay results: ChEMBL document CHEMBL4364325, “Synthesis, pharmacological and structural studies of 5-substituted-3-(1-arylmethyl-1,2,3,6-tetrahydropyridin-4-yl)-1H-indoles as multi-target ligands of aminergic GPCRs” (Eur J Med Chem, 2019)
Calls of active or inactive are those of the source. No cut-off for these calls is given here.

Experiments:
[1] = target: T1, 5-hydroxytryptamine receptor 2A (Homo sapiens, UniProt P28223); test: Displacement of [3H]ketanserin from human 5HT2A receptor expressed in HEK293 cell membranes at 10 uM measured after 30 mins relative to control
T1 sequence (P28223 whole entry): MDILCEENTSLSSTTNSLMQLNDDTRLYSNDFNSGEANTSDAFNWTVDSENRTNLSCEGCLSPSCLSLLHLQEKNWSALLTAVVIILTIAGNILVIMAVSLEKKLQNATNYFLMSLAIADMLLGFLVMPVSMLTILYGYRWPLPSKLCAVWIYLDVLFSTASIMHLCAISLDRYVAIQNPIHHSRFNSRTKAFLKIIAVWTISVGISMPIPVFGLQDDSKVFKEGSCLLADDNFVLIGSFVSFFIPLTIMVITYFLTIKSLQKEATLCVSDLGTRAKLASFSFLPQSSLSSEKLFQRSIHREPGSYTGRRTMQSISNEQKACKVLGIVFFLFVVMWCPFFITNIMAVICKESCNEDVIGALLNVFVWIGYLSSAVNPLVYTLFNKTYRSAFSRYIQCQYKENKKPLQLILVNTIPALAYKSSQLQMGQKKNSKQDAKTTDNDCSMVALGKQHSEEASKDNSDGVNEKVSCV

[2] = target: T2, D(2) dopamine receptor (Homo sapiens, UniProt P14416); test: Displacement of [3H]Spiperone from human D2S receptor expressed in CHOK1 cell membranes measured after 120 mins
T2 sequence (P14416 whole entry): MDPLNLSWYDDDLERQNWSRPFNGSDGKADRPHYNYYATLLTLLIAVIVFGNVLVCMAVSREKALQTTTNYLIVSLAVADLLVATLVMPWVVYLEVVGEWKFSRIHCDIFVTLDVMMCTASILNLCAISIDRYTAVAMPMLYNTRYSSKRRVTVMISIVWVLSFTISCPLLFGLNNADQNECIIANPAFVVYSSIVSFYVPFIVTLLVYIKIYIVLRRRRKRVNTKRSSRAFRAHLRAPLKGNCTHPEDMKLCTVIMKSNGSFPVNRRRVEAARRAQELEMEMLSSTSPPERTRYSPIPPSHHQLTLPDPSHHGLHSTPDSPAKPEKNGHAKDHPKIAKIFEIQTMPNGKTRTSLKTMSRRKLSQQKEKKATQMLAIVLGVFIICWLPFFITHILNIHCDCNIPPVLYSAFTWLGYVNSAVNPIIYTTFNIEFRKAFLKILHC

[3] = target: T3, 5-hydroxytryptamine receptor 1A (Homo sapiens, UniProt P08908); test: Displacement of [3H]8-OH-DPAT from human 5HT1A receptor expressed in HEK293 cell membranes measured after 120 mins
T3 sequence (P08908 whole entry): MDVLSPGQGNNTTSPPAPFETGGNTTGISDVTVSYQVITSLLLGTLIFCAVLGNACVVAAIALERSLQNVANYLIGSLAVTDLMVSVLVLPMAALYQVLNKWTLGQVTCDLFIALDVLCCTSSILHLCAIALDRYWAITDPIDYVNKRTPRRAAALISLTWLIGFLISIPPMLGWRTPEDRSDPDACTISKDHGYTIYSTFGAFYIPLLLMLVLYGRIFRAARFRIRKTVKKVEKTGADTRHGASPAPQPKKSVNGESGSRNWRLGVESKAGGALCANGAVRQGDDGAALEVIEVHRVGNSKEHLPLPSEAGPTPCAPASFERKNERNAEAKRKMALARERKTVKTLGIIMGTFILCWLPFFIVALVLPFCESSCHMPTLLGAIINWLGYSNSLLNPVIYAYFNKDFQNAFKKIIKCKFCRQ

[4] = species: Homo sapiens; test: Selectivity ratio of Kb for human 5HT2A receptor expressed in CHOK1 cells to Kb for human D2S receptor expressed in CHOK1 cells; format: cell-based
[5] = target: T4, 5-hydroxytryptamine receptor 1A (Homo sapiens) (UniProt P08908); test: Agonist activity at human 5HT1A receptor expressed in HEK293 cell membranes assessed as maximal inhibition of forskolin induced cAMP production incubated for 24 hrs followed by forskolin addition by HTRF assay relative to control; format: functional, cell-based
T4 sequence (whole entry): T3 sequence (P08908 whole entry)

[6] = target: T2, D(2) dopamine receptor; test: Antagonist activity at human D2S receptor expressed in CHOK1 cells assessed as suppression of dopamine-induced inhibition of forskolin-stimulated cAMP accumulation preincubated for 5 mins followed by dopamine and forskolin addition and measured after 10 mins by HTRF assay; format: functional, cell-based
[7] = target: T2, D(2) dopamine receptor; test: Competitive antagonist activity at human D2S receptor expressed in CHOK1 cells assessed as quinpirole mediated inhibition of forskolin induced cAMP accumulation by measuring parallel rightward shifts of quinpirole concentration-response curves incubated for 10 mins by HTRF assay based Schild plot analysis; format: functional, cell-based
[8] = target: T2, D(2) dopamine receptor; test: Agonist activity at human D2 receptor expressed in CHOK1 cells assessed as inhibition of forskolin induced cAMP production at 0.1 nM to 100 uM incubated for 10 mins followed by forskolin addition and measured after 5 mins by HTRF assay; format: functional, cell-based
[9] = target: T1, 5-hydroxytryptamine receptor 2A; format: functional, cell-based
Description: Antagonist activity at human 5HT2A receptor expressed in CHOK1 cells assessed as inhibition of 5-HT induced inositol phosphate production incubated for 24 hrs followed by 5-HT addition by HTRF assay

[10] = target: T1, 5-hydroxytryptamine receptor 2A; test: Displacement of [3H]ketanserin from human 5HT2A receptor expressed in HEK293 cell membranes measured after 30 mins; format: cell-based
[11] = target: T1, 5-hydroxytryptamine receptor 2A; test: Antagonist activity at human 5HT2A receptor expressed in CHOK1 cells assessed as inhibition of inositol phosphate production incubated for 24 hrs followed by 5-HT addition by Cheng-Prusoff equation analysis; format: functional, cell-based
[12] = target: T2, D(2) dopamine receptor; test: Displacement of [3H]Spiperone from human D2S receptor expressed in CHOK1 cell membranes at 10 uM measured after 120 mins relative to control
[13] = target: D(3) dopamine receptor (Homo sapiens, UniProt P35462); test: Displacement of [3H]Spiperone from human D3 receptor expressed in commercial cell membranes
Sequence of D(3) dopamine receptor (P35462 whole entry): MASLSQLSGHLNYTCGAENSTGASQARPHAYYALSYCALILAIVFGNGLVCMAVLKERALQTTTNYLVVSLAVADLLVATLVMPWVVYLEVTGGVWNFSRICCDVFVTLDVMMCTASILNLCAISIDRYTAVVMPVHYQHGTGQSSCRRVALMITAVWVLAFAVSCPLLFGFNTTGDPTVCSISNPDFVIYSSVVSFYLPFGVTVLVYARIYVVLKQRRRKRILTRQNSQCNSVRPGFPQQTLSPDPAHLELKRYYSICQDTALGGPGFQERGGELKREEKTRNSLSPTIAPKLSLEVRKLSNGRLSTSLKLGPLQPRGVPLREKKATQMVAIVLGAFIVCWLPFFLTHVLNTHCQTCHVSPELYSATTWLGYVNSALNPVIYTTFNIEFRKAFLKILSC

[14] = target: T2, D(2) dopamine receptor; test: Displacement of [3H]Spiperone from human D2S receptor expressed in CHO cell membranes
[15] = target: T3, 5-hydroxytryptamine receptor 1A; test: Displacement of [3H]8-OH-DPAT from human 5HT1A receptor expressed in HEK293 cell membranes
[16] = target: T1, 5-hydroxytryptamine receptor 2A; test: Displacement of [3H]ketanserin from human 5HT2A receptor expressed in CHO cell membranes
[17] = target: D(1A) dopamine receptor (Homo sapiens, UniProt P21728); test: Displacement of [3H]SCH23390 from human D1 receptor expressed in commercial cell membranes
Sequence of D(1A) dopamine receptor (P21728 whole entry): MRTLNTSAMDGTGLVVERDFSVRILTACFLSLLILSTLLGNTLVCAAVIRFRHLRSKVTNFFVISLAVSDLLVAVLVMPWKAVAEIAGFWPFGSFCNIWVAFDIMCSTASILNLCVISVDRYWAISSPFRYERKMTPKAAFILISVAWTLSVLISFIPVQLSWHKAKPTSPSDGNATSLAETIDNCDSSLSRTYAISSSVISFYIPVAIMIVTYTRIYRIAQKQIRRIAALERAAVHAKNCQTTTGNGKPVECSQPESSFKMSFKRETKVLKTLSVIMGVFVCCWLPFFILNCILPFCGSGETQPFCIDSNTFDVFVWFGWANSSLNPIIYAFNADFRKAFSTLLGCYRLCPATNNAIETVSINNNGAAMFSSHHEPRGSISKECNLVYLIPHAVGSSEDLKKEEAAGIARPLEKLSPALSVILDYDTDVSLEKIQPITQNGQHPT

[18] = Toxicity in Swiss mouse assessed as induction of motor coordination impairments at 50 mg/kg, ip measured after 60 mins by chimney test; format: organism-based; conditions: in vivo, 1 h
[19] = tested on: Mus musculus; test: Cognition enhancing effect in Swiss mouse assessed as increase in latency index at 50 mg/kg, ip as acute administration measured after 24 hrs by passive avoidance test; format: functional, organism-based
[20] = tested on: Mus musculus; test: Antidepressant activity in Swiss mouse assessed as decrease in immobility time at 50 mg/kg, ip as acute administration measured during last 4 mins for 6 mins by forced swim test; format: functional, organism-based
[21] = tested on: Mus musculus; test: Antidepressant activity in Swiss mouse assessed as increase in latency time at 50 mg/kg, ip as acute administration measured during last 4 mins for 6 mins by forced swim test; format: functional, organism-based
[22] = tested on: Mus musculus; test: Antipsychotic activity in Swiss mouse assessed as decrease in amphetamine-induced hyperlocomotion at 50 mg/kg, ip pretreated for 60 mins followed by amphetamine administration and measured for 30 mins; format: functional, organism-based

## COc1ccc(CN2CC=C(c3c[nH]c4ccccc34)CC2)cc1
[1]
  inhibition: 52%
[2]
  Ki: 87.3 nM
[3]
  Ki: 243 nM

## C1=C(c2c[nH]c3ccccc23)CCN(Cc2ccccc2)C1
[4]
  Selectivity ratio: 80
[5]
  Emax: 89%
[2]
  Ki: 25.8 nM
[6]
  Activity: Dose-dependent effect
[7]
  Activity: Dose-dependent effect
  Kb: 3.51 nM
  pKb: 8.45
[8]
  Activity: inactive
[9]
  IC50: 2620 nM
[10]
  Ki: 125 nM
[11]
  Kb: 279 nM
[3]
  Ki: 354 nM

## COc1ccc2[nH]cc(C3=CCN(Cc4ccco4)CC3)c2c1
[1]
  inhibition: 15%
[2]
  Ki: 142 nM
[3]
  Ki: 195 nM

## CC(C)Oc1ccc2[nH]cc(C3=CCN(Cc4cccs4)CC3)c2c1
[1]
  inhibition: 14%
[2]
  Ki: 465 nM
[3]
  Ki: 214 nM

## CCOc1ccc2[nH]cc(C3=CCN(Cc4ccccc4)CC3)c2c1
[10]
  Ki: 2100 nM
[3]
  Ki: 220 nM

## CCOc1ccc2[nH]cc(C3=CCN(Cc4ccc(OC)cc4)CC3)c2c1
[1]
  inhibition: 38%
[2]
  Ki: 132 nM
[3]
  Ki: 194 nM

## COc1cccc(CN2CC=C(c3c[nH]c4ccccc34)CC2)c1
[4]
  Selectivity ratio: 200
[5]
  Emax: 76%
[2]
  Ki: 26.9 nM
[6]
  Activity: Dose-dependent effect
[7]
  Activity: Dose-dependent effect
  Kb: 4.95 nM
  pKb: 8.31
[8]
  Activity: inactive
[9]
  IC50: 7980 nM
[10]
  Ki: 194 nM
[11]
  Kb: 803 nM
[3]
  Ki: 243 nM

## COc1ccc(CN2CC=C(c3c[nH]c4ccc(OC)cc34)CC2)cc1
[1]
  inhibition: 48%
[2]
  Ki: 148 nM
[3]
  Ki: 134 nM

## COc1ccc2[nH]cc(C3=CCN(Cc4ccccc4)CC3)c2c1
[1]
  inhibition: 41%
[2]
  Ki: 62.7 nM
[3]
  Ki: 139 nM

## CC(C)Oc1ccc2[nH]cc(C3=CCN(Cc4ccco4)CC3)c2c1
[1]
  inhibition: 5%
[12]
  inhibition: 51%
[3]
  Ki: 431 nM

## COc1ccc(CN2CC=C(c3c[nH]c4ccc(OC(C)C)cc34)CC2)cc1
[1]
  inhibition: 36%
[2]
  Ki: 165 nM
[3]
  Ki: 378 nM

## CC(C)Oc1ccc2[nH]cc(C3=CCN(Cc4ccccc4)CC3)c2c1
[1]
  inhibition: 32%
[2]
  Ki: 321 nM
[3]
  Ki: 203 nM

## COc1ccc2[nH]cc(C3=CCN(Cc4cccs4)CC3)c2c1
[2]
  Ki: 141 nM
[10]
  Ki: 1890 nM
[3]
  Ki: 157 nM

## NCCc1c[nH]c2ccc(C(N)=O)cc12
[5]
  Emax: 95%

## COc1cccc(CN2CC=C(c3c[nH]c4ccc(OC(C)C)cc34)CC2)c1
[1]
  inhibition: 43%
[2]
  Ki: 299 nM
[3]
  Ki: 290 nM

## COc1ccc2[nH]cc(C3=CCN(Cc4cc(=O)[nH]c5ccccc45)CC3)c2c1
[13]
  Ki: 614 nM
[14]
  Ki: 58 nM
[15]
  Ki: 125 nM
[16]
  Ki: 358 nM
[17]
  Ki: 148 nM

## COc1cccc(CN2CC=C(c3c[nH]c4ccc(OC)cc34)CC2)c1
[1]
  inhibition: 24%
[2]
  Ki: 112 nM
[3]
  Ki: 135 nM

## C1=C(c2c[nH]c3ccccc23)CCN(Cc2ccco2)C1
[2]
  Ki: 257 nM
[10]
  Ki: 173 nM
[3]
  Ki: 752 nM

## CCOc1ccc2[nH]cc(C3=CCN(Cc4cccc(OC)c4)CC3)c2c1
[1]
  inhibition: 3%
[2]
  Ki: 108 nM
[3]
  Ki: 160 nM

## CCOc1ccc2[nH]cc(C3=CCN(Cc4ccco4)CC3)c2c1
[1]
  inhibition: 47%
[12]
  inhibition: 62%
[3]
  Ki: 486 nM

## C1=C(c2c[nH]c3ccccc23)CCN(Cc2cccs2)C1
[18]
  Activity: Non-Toxic
[19]
  Activity: Active
[4]
  Selectivity ratio: 50
[5]
  Emax: 67%
[2]
  Ki: 71.9 nM
[6]
  Activity: Dose-dependent effect
[7]
  Activity: Dose-dependent effect
  Kb: 5.06 nM
  pKb: 8.3
[20]
  Activity: Active
[8]
  Activity: inactive
[9]
  IC50: 2410 nM
[10]
  Ki: 171 nM
[11]
  Kb: 238 nM
[21]
  Activity: Active
[22]
  Activity: Active
[3]
  Ki: 305 nM

## CCOc1ccc2[nH]cc(C3=CCN(Cc4cccs4)CC3)c2c1
[1]
  inhibition: 0%
[2]
  Ki: 166 nM
[3]
  Ki: 139 nM
